Results taken from publication PMC6278385, “Preclinical Pharmacokinetics of C118P, a Novel Prodrug of Microtubules Inhibitor and Its Metabolite C118 in Mice, Rats, and Dogs” (Molecules, 2018).

Experiment: Tissue distribution in tumor bearing mice
Assay type: in vivo, nude mice (BALB/cA) implanted with NCI-H460 tumor
Settings: n=4
Procedure: The nude mice (BALB/cA) implanted with NCI-H460 tumor were provided by Shanghai Institute of Materia Medica. A total of 36 mice were divided into 9 groups with four animals in each group. After fasting overnight with free access to water, the mice were treated with 75 mg/kg C118P by i.v. The blood samples were collected at 2, 10, 20, 40 min, 1, 2, 4, 8, 12 h after treatment and the mice were anaesthetized and decapitated to obtain the blood and tumor tissue. Blood, brain, muscle, ovary, and lung from mice in the PK study were collected at 10 min, 1, 4, and 12 h. Tissues were cleaned by absorbent filter paper to remove the blood. Bloods were centrifuged at 10,000× g for 5 min. Each tissue (0.2 g) was homogenized with 2 mL water. The plasma samples and the homogenates were then processed and determined by the method described above. The concentration was determined by the calibration curve and the actual concentration was corrected by multiplying by 10 according to the dilution times. […]
4. The distribution of CA4P and CA4 in tumor bearing mice.
The nude mice (BALB/cA) implanted with NCI-H460 tumor were provided by Shanghai institute of Materia Medica. A total of 36 mice were divided into 9 groups with 4 animals in each group.
After fasted overnight with free access to water, the mice were treated with 75 mg/kg CA4P by i.v.
The blood samples were collected at 2, 10, 20, 40 min, 1, 2, 4, 8, 12 h after treatment and the mice were anaesthetized and decapitated to obtain the blood and tumor tissue. All procedure are same as C118P in the main text. The concentration was determined by the calibration curve and the actual concentration was corrected by multiplying by 10 according to the dilution times.

[1] = 0.17 h after i.v. 75 mg/kg of CA4P
[2] = 1 h after i.v. 75 mg/kg of CA4P
[3] = 4 h after i.v. 75 mg/kg of CA4P
[4] = 12 h after i.v. 75 mg/kg of CA4P

Row | concentration in Lung [1] | concentration in brain [1] | concentration in ovary [1] | concentration in Lung [2] | concentration in brain [2] | concentration in muscle [2] | concentration in ovary [2] | concentration in Lung [3] | concentration in brain [3] | concentration in muscle [3] | concentration in Tumor [4] | concentration in muscle [4] | Compound | concentration in Plasma [1] | concentration in Tumor [1] | concentration in muscle [1] | concentration in Plasma [2] | concentration in Tumor [2] | concentration in Plasma [3] | concentration in Tumor [3] | concentration in Plasma [4]
1 | 5849.0±580.7 | 16165.3±1211.9 | 44183.5±13169.9 | 759.4±242.6 | 2135.9±486.2 | 595.6±308.4 | 1288.3±711.2 | 106.8±12.1 | 97.6±21.3 | 142.0±33.9 | 735.1±426.2 | 51.9±36.8 | COc1ccc(/C=C\c2cc(OC)c(OC)c(OC)c2)cc1O [CA4, Combretastain A4, reference compound] | 12540.3±972.6 | 9835.7±1345.9 | 8526.1±3505.7 | 595.8±277.7 | 4803.9±770.6 | 21.1±4.5 | 3677.0±1079.9 | 
2 |  |  |  |  |  |  |  |  |  |  |  |  | COc1ccc(/C=C\c2cc(OC)c(OC)c(OC)c2)cc1OP(=O)([O-])[O-].[Na+].[Na+] [CA4P, CA4 phosphate, reference compound] | 15879.9±4473.5 | 142.8±49.2 | 345.2±68.9 | 324.9±105.2 | 26.5±1.4 | 15.0±6.8 | 34.5±1.9 | 12.6±3.3
